Laboratory results taken from patent US9872514B2, “Compounds, compositions, and methods for reducing or eliminating bitter taste” (Chromocell Corporation, priority 2010, dated 2018).
Read-outs that look alike come from different tables or passages of the source.

Legend:
Type in all cases: in vivo, humans
[1] = test system: bitter taste of an aqueous solution of potassium lactate; test: Sip and spit bitterness rating of aqueous potassium lactate test solutions; settings: Homo sapiens, aqueous potassium lactate 41 g/L, 1% EtOH, dash = none of the tested conc.
Method: (§1) A set of KCl solution standards was developed and each standard solution was assigned a bitterness taste score of 0-15 (corresponding to aqueous KCl concentrations of 0 mM-120 mM). Panelists were trained to recognize these standards. In addition, before each day of testing, panelists were tested to see if they could determine differences in taste between the standard solutions. If a panelist was unable to recognize a change in KCl concentration, they were excluded from the panel for that day.
(§2) In a blind taste test, panelists were asked to compare the bitter taste of a small quantity (e.g., 8 ml) of each of the KCl Test Solutions to the taste of a KCl solution standard, without swallowing (see, e.g., Table 1). Specifically, panelists were asked to rate the bitterness of each KCl Test Solution on a scale of 0-15 using the same scale developed for the KCl solution standards. Each sample was tested in 2-4 discrete taste test experiments. Panelists were asked to rinse with water, eat a cracker, and wait approximately 10 minutes between samples.
Edible potassium lactate solution compositions (“potassium lactate test solutions”) were prepared by first dissolving varying amounts of the test compounds in an amount of ethanol or water (depending on the solubility of the compound) to create a 5 mg/mL stock compound solution. An amount of this stock compound solution is then added to an aqueous potassium lactate solution. Enough EtOH is then added to the resulting stock compound/potassium lactate solution so that the final potassium lactate test solution contains 1% EtOH. Potassium lactate solution standards were similarly prepared by dissolving various amounts of potassium lactate in water and ethanol without adding any test compound.
The effect of the test compounds on the perception of the bitter taste of an aqueous solution of potassium lactate in humans was evaluated using the “sip and spit” test described in Example 2.

[2] = test system: bitter taste of potassium lactate foodstuffs; test: 2AFC sip and spit test of potassium lactate turkey foodstuff slurries; settings: turkey slurry, 4.5% potassium lactate, 2AFC vs standard; dash = none of the tested conc.
Method: (§3) In a blind taste test, panelists received two portions of turkey slurry—one portion being the KCl foodstuff slurry standard and the other being one of the KCl test foodstuff slurries (each prepared as described in Example 5). The panelists tasted each of the portions by sipping and spitting. Each sample was tested in 2-4 discrete taste test experiments. Panelists were asked to rinse with water, eat a cracker, and wait about 10 minutes between samples. In each case, the panelists were asked to compare the bitter taste of the two turkey samples to each other (i.e., panelists were asked to indicate which sample was less bitter).
Edible potassium lactate food compositions (“potassium lactate test foodstuff slurries”) were prepared as follows. Dehydrated, salt-free turkey powder was weighed and mixed with various amounts of potassium lactate and/or sodium lactate and then solubilized with boiling water to create a homogenized solubilized turkey slurry. Varying amounts of the test compounds were dissolved in an amount of ethanol or water depending on the solubility of the compound) to create a 5 mg/mL stock compound solution. An amount of this stock compound solution was then added to the turkey slurry. Enough EtOH is then added to the resulting stock compound/turkey slurry so that the final slurry contains 1% EtOH. The final slurry was again homogenized by boiling and mixing and allowed to cool to yield the final slurry for taste testing. Potassium lactate foodstuff slurry standards were similarly prepared without any test compound.
The effect of the test compounds on the perception of the bitter taste of potassium lactate foodstuffs in humans was evaluated using the two-alternative-forced-choice “sip and spit” test described in Example 6.

[3] = test system: bitter taste of an aqueous solution of KCl; test: Latin Square-2AFC sip and spit test of aqueous KCl solutions; settings: Homo sapiens, aqueous KCl 4.85 g/L, Latin Square-2AFC vs KCl standard, dash = none of the tested conc.
Method: The effect of the test compounds on the perception of the bitter taste of an aqueous solution of KCl in humans was evaluated using a “sip and spit” test using a Latin Square-2AFC testing method as follows.
In a blind taste test, panelists were asked to compare the bitter taste of a small quantity (e.g., 8 ml) of a KCl Test Solution to the taste of a KCl solution standard (prepared as described in Example 1), without swallowing. NaCl solution standards were prepared as described in Example 1.
In order to eliminate any effects of sample order, a complete Latin Square design was employed so that each possible order of sample presentation was utilized across subjects. Each sample was tested in several discrete taste test experiments. Panelists were asked to rinse with water, eat a cracker, and wait about 10 minutes between samples. In each case, the panelists were asked to choose the sample which tasted “less bitter.” Illustrative results of the aqueous solution Latin Square-2AFC testing are presented in Table 5.

[4] = test system: bitter taste of KCl in solid-matrix foodstuffs; test: Latin Square-2AFC chew and spit test of KCl solid turkey; settings: Homo sapiens, 1.6% KCl (80% KCl:20% NaCl marinade), dash = none of the tested conc.
Method: The effect of the test compounds on the perception of the bitter taste of KCl in solid-matrix foodstuffs in humans was evaluated using a “chew and spit” test using a Latin Square-2AFC testing method as follows.
Two types of marinades containing Prague powder, sugar, Evian™ water, KCl and/or NaCl in water were prepared. One marinade contained 80% KCl, 20% NaCl (by weight) (i.e., marinade concentration of […]). A second marinade contained 60% KCl:40% NaCl (by weight) (i.e., marinade concentration of 1.2% KCl). Compound stock solutions were prepared by dissolving an amount of test compound in ethanol or water (depending on the solubility of the compound) to create a 5 mg/mL stock compound solution. Enough ethanol was added to each stock compound solution to generate a final stock compound solution containing 1% ethanol. The marinade, the stock compound solution and ground turkey were added to a mixing bowl, mixed at low-speed for about 2 minutes, and then mixed at high-speed for about 5 minutes. The marinated turkey mixture was divided into one pound aliquots, vacuum sealed into food saver bags, and allowed to marinate for about 2 hours in a refrigerator. The vacuum-sealed turkey was then cooked in an about 86° C. water bath for about 30 minutes. If after about 30 minutes, the internal turkey temperature had not reached about 170° F., the vacuum-sealed turkey was cooked for about an additional 5 minutes. The vacuum-sealed turkey was then refrigerated for about two weeks before taste testing. KCl standards were similarly prepared by dissolving KCl in the marinade without adding any test compound during the turkey preparation.
The panelists tasted portions by chewing and spitting. In order to eliminate any effects of sample order, a complete Latin Square design was employed so that each possible order of sample presentation was utilized across subjects. Each simple was tested in several discrete taste test experiments. Panelists were asked to rinse with water, cat a cracker, and wait about 10 minutes between samples. In each case, the panelists were asked to choose the sample that tasted less bitter.

[5] = test system: bitter taste of KCl foodstuff slurries; test: Latin Square-2AFC sip and spit test of KCl turkey slurry; settings: 1.6% KCl, dash = none of the tested conc.
Method: The effect of the test compounds on the perception of the bitter taste of KCl foodstuff slurries in humans was evaluated using a “sip and spit” test using a Latin Square-2AFC testing method as follows.
In a blind taste test, panelists received two portions of turkey slurry—one portion being the KCl foodstuff slurry standard and the other being one of the KCl test foodstuff slurries (prepared as described in Example 5). NaCl foodstuff slurry standards were prepared as described in Example 1.
The panelists tasted each of the portions by sipping and spitting. In order to eliminate any effects of sample order, a complete Latin Square design was employed so that each possible order of sample presentation was utilized across subjects. Each sample was tested in several discrete taste test experiments. Panelists were asked to rinse with water, eat a cracker, and wait about 10 minutes between samples. In each case, the panelists were asked to choose the sample that tasted less bitter.

[6] = test system: bitter taste of an aqueous solution of KCl; test: Sip and spit bitterness rating of aqueous KCl test solutions; settings: Homo sapiens, aqueous KCl 4.85 g/L, 1% EtOH, bitterness scored 0-15 vs KCl standard, dash = none of the tested conc.
Method: An amount of this stock compound solution is then added to an aqueous KCl solution. Enough EtOH is then added to the resulting stock compound/KCl solution so that the final KCl test solution contains 1% EtOH. KCl solution standards were similarly prepared by dissolving various amounts of KCl in water and ethanol without adding any test compound.
The effect of the test compounds an the perception of the bitter taste of an aqueous solution of KCl in humans was evaluated using a “sip and spit” test as follows.
as §1, §2

[7] = test system: bitter taste of KCl foodstuff slurries; test: Two-alternative forced choice (2AFC) sip and spit test of KCl turkey foodstuff slurries; settings: Homo sapiens, turkey slurry, 1.6% KCl, 2AFC vs KCl slurry standard, dash = none of the tested conc.
Method: Edible KCl food compositions (“KCl test foodstuff slurries”) were prepared as follows. Dehydrated, salt-free turkey powder was weighed and mixed with various amounts of KCl and/or NaCl and then solubilized with boiling water to create a homogenized solubilized turkey slurry. Varying amounts of the test compounds were dissolved in an amount of ethanol or water (depending on the solubility of the compound) to create a 5 mg/mL stock compound solution. An amount of this stock compound solution was then added to the turkey slurry. Enough EtOH is then added to the resulting stock compound/turkey slurry so that the slurry contains 1% EtOH. The slurry was again homogenized by boiling and mixing and allowed to cool to yield the final KCl test foodstuff slurry for taste testing KCl foodstuff slurry standards were similarly prepared without any test compound.
The effect of the test compounds on the perception of the bitter taste of KCl foodstuff slurries in humans was evaluated using a two-alternative-forced-choice “sip and spit” test as follows.
as §3

[8] = read-out: Conc. Where Decrease in Bitter Taste Discerned and p ≦ 0.1
[9] = read-out: Conc. Where Decrease in Bitter Taste Was Discerned
[10] = read-out: Conc. at Which At Least 50% of Panelist Discerned Decrease in Bitter Taste
[11] = read-out: Conc. at Which At Least 50% of Panelist Discerned Decrease in Bitter Taste and p ≦ 0.1

Structure (SMILES) | minimal effective concentration [1, 8] | minimal effective concentration [1, 9] | minimal effective concentration [6, 8] | minimal effective concentration [4, 11] | further results
COc1ccc2c(=O)cc(-c3ccccc3)oc2c1 [Compound 95] | 1 µg/mL | – | – | – | Conc. at Which At Least 50% of Panelist Discerned Decrease in Bitter Taste and p ≦ 0.1 [2]: 10 ppm
C/C=C/C(=O)C1C(C)=CCCC1(C)C (stereo not shown) [Compound 2] | – | 1 µg/mL | 10 µg/mL | – | minimal effective concentration [3, 10]: 2 µg/mL; minimal effective concentration [4, 10]: 10 µg/mL; Conc. at Which At Least 50% of Panelist Discerned Decrease in Bitter Taste [5]: 25 ppm
CC(C)=CCCC(C)CCOC(=O)C(C)C (stereo not shown) [Compound 11] | – | – | 10 µg/mL | – | minimal effective concentration [3, 10]: 1 µg/mL
CC(C)=CCC/C(C)=C/COC(=O)Cc1ccccc1 [Compound 26] | 10 µg/mL | 10 µg/mL | 1 µg/mL | – | Conc. at Which At Least 50% of Panelist Discerned Decrease in Bitter Taste [5]: 0.6 ppm
CCC(=O)OCCC(C)CCC=C(C)C (stereo not shown) [Compound 10] | – | 0.1 µg/mL | 1 µg/mL | – | minimal effective concentration [4, 10]: 0.5 µg/mL; minimal effective concentration [7, 10]: 0.1 µg/mL
CCC1(O)C2(C)CCC(C2)C1(C)C (stereo not shown) [Compound 85] | 5 µg/mL | 5 µg/mL | 1 µg/mL | 1 µg/mL | minimal effective concentration [3, 10]: 0.005 µg/mL
CCC(=O)OC/C=C(\C)CCC=C(C)C [Compound 22] | 1 µg/mL | – | 1 µg/mL | – | minimal effective concentration [3, 11]: 0.25 µg/mL
CC(C)=CCC/C(C)=C\CO [Compound 31] | 10 µg/mL | – | 10 µg/mL | 4 µg/mL | minimal effective concentration [7, 10]: 10 µg/mL
CC(=O)OC/C=C(\C)CCC[C@H](C)CCC[C@H](C)CCCC(C)C [Compound 41] | – | 5 µg/mL | 10 µg/mL | 2.5 µg/mL | minimal effective concentration [3, 11]: 1 µg/mL; minimal effective concentration [6, 9]: 10 µg/mL
C[C@H]1CC[C@@H](C(C)(C)O)CC2=C1CC[C@@H]2C [Compound 120] | – | – | – | – | Conc. at Which At Least 50% of Panelist Discerned Decrease in Bitter Taste [2]: 10 ppm; minimal effective concentration [7, 10]: 10 µg/mL
O=C1CCc2ccccc2O1 [Compound 53] | 10 µg/mL | 10 µg/mL | 10 µg/mL | – | minimal effective concentration [3, 10]: 1 µg/mL; Conc. at Which At Least 50% of Panelist Discerned Decrease in Bitter Taste [2]: 5 ppm
OCc1ccc(O)cc1 [Compound 69] | – | – | 1 µg/mL | 1 µg/mL | minimal effective concentration [7, 11]: 10 µg/mL
CC(C)=CCC/C(C)=C\COC(=O)C(C)C [Compound 34] | 1 µg/mL | – | – | – | minimal effective concentration [4, 10]: 2 µg/mL
CC12CCC(CC1=O)C2(C)C (stereo not shown) [Compound 74] | 1 µg/mL | 1 µg/mL | – | 10 µg/mL | minimal effective concentration [3, 11]: 1 µg/mL; Conc. at Which At Least 50% of Panelist Discerned Decrease in Bitter Taste [2]: 1 ppm; minimal effective concentration [7, 10]: 10 µg/mL
